Measured values taken from patent US20080161232A1, “C5a Receptor Antagonist” (JERINI AG, priority 2005, published 2008).
Starred links: 1 amine or outer side, 2 acyl side, 3 side chain; linkers in the order of their positions; H or OH if unused. Positions of bridges follow the written chain, without caps; N, C: chain ends. Non-standard residues stand in square brackets, D forms with d. Residues, ends and D or L forms follow the SMILES beside them. N(3,4-(MeO)2phenethyl)Gly = COc1ccc(CCNCC(=O)O)cc1OC; Orn(2-imidazolinyl) = N[C@@H](CCCNC1=NCCN1)C(=O)O; Phe(2-CF3) = N[C@@H](Cc1ccccc1C(F)(F)F)C(=O)O; dβ3hPhg = O=C(C[C@H](N[*:1])c1ccccc1)[*:2]; Phe(3-Cl) = N[C@@H](Cc1cccc(Cl)c1)C(=O)O; Phe(4-Cl) = N[C@@H](Cc1ccc(Cl)cc1)C(=O)O; Phe(3-F) = N[C@@H](Cc1cccc(F)c1)C(=O)O; Phe(3-Me) = Cc1cccc(C[C@H](N)C(=O)O)c1; Phe(4-F) = N[C@@H](Cc1ccc(F)cc1)C(=O)O; 2Nal = N[C@@H](Cc1ccc2ccccc2c1)C(=O)O; Bta = N[C@@H](Cc1csc2ccccc12)C(=O)O; Hyp = O=C(O)[C@@H]1C[C@@H](O)CN1; d(hLeu) = CC(C)CC[C@@H](N)C(=O)O; 3Pal = N[C@@H](Cc1cccnc1)C(=O)O; Tic = O=C(O)[C@@H]1Cc2ccccc2CN1; 2Thi = N[C@@H](Cc1cccs1)C(=O)O; Cha = N[C@@H](CC1CCCCC1)C(=O)O; NMeN = CN[C@@H](CC(N)=O)C(=O)O; dCha = N[C@H](CC1CCCCC1)C(=O)O; dChg = N[C@@H](C(=O)O)C1CCCCC1; NMeA = CN[C@@H](C)C(=O)O; Nle = CCCC[C@H](N)C(=O)O; Orn = NCCC[C@H](N)C(=O)O; Aze = O=C(O)[C@@H]1CCN1

Molecular target: T1, human C5aR(CD88) (Homo sapiens, UniProt P21730)
T1 construct: expressed in transfected cells; host or cells: rat basophilic leukemia cells (RBL)
T1 sequence (P21730 1-350): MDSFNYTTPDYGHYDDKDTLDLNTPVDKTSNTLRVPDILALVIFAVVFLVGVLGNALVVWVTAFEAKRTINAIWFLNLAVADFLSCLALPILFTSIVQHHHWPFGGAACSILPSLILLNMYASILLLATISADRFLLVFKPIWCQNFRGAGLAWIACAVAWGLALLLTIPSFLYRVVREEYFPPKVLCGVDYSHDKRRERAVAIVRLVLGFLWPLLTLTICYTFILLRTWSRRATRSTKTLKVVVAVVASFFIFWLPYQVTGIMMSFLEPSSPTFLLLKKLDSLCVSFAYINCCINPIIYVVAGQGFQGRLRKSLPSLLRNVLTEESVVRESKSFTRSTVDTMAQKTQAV
Test: Determination of the IC50 value in an enzyme release assay (functional assay, antagonistic activity)
Type: cell-based
Settings: antagonistic activity; IC50 group in enzyme release assay, RBL cells expressing human C5aR(CD88); read-out: activity (group)

Compound | IC50
CCCC[C@@H]1NC(=O)[C@H](Cc2c[nH]c3ccccc23)NC(=O)[C@@H](CC2CCCCC2)NC(=O)[C@H](CC(N)=O)N(C)C(=O)[C@@H](NC(=O)[C@H](Cc2ccccc2)NC(C)=O)CCCNC1=O [Compound 184, Ac-Phe-[Orn-NMD-cha-Trp-Nle]] (Ac-F[Orn][NMeN][dCha]W[Nle]; lactam 2-C) | 50 to 200 nM
CC(=O)N[C@@H](Cc1ccccc1)C(=O)N[C@@H](CCCCN)C(=O)N[C@@H](C)C(=O)N[C@@H](CC1CCCCC1)C(=O)N[C@@H](C)C(=O)N[C@@H](CC(C)C)C(=O)N[C@H](C)C(=O)N[C@@H](Cc1ccc(O)cc1)C(=O)O [compound 60] (Ac-FKA[Cha]AL[dA]Y-OH) | 200 to 2000 nM
CC(=O)N[C@@H](Cc1cccc(F)c1)C(=O)N[C@@H](CCCN)C(=O)N1CCC[C@H]1C(=O)N[C@H](CC1CCCCC1)C(=O)N[C@@H](Cc1csc2ccccc12)C(=O)N[C@@H](Cc1ccccc1)C(N)=O [Compound 161, Ac-Mff-Orn-Pro-cha-Bta-Phe-NH2] (Ac-[Phe(3-F)][Orn]P[dCha][Bta]F-NH2) | 50 to 200 nM
CC(=O)N[C@@H](Cc1ccccc1)C(=O)N[C@@H](Cc1cccnc1)C(=O)N1CCC[C@H]1C(=O)N[C@H](CC1CCCCC1)C(=O)N[C@@H](Cc1csc2ccccc12)C(=O)N[C@@H](Cc1ccccc1)C(N)=O [Compound 124, Ac-Phe-Mpa-Pro-cha-Bta-Phe-NH2] (Ac-F[3Pal]P[dCha][Bta]F-NH2) | 50 to 200 nM
CC(=O)N[C@@H](CCCN)C(=O)N[C@@H](Cc1ccccc1)C(=O)N[C@@H](CCCN)C(=O)N1CC[C@H]1C(=O)N[C@H](CC1CCCCC1)C(=O)N[C@@H](Cc1csc2ccccc12)C(=O)N[C@@H](Cc1ccccc1)C(N)=O [Compound 168, Ac-Orn-Phe-Orn-Aze-cha-Bta-Phe-NH2] (Ac-[Orn]F[Orn][Aze][dCha][Bta]F-NH2) | 50 to 200 nM
CC(C)CC[C@H]1NC(=O)[C@@H]2C[C@@H](O)CN2C(=O)[C@@H](NC(=O)[C@@H](N)Cc2ccccc2)CCCNC(=O)[C@H](CC(C)C)NC(=O)[C@H](Cc2c[nH]c3ccccc23)NC1=O [Compound 368, H-Phe-[Orn-Hyp-hle-Trp-Leu]] (H-F[Orn][Hyp][d(hLeu)]WL; lactam 2-C) | 20 to 50 nM
CC(=O)N[C@@H](Cc1ccccc1)C(=O)N[C@@H](CCCN)C(=O)N1CCC[C@H]1C(=O)N[C@H](CCC(C)C)C(=O)N[C@@H](Cc1csc2ccccc12)C(=O)N[C@@H](Cc1ccc(Cl)cc1)C(N)=O [Compound 278, Ac-Phe-Orn-Pro-hle-Bta-Pcf-NH2] (Ac-F[Orn]P[d(hLeu)][Bta][Phe(4-Cl)]-NH2) | 50 to 200 nM
CC(=O)N[C@@H](Cc1ccccc1)C(=O)N[C@@H](CCCNC1=NCCN1)C(=O)N1CCC[C@H]1C(=O)N[C@H](CCC(C)C)C(=O)N[C@@H](Cc1csc2ccccc12)C(=O)N[C@@H](Cc1ccccc1)C(N)=O [Compound 226, Ac-Phe-Ffa-Pro-hle-Bta-Phe-NH2] (Ac-F[Orn(2-imidazolinyl)]P[d(hLeu)][Bta]F-NH2) | 10 to 20 nM
CC(=O)N[C@@H](Cc1ccccc1)C(=O)N[C@H]1CCCNC(=O)[C@H](Cc2ccccc2)NC(=O)[C@H](Cc2c[nH]c3ccccc23)NC(=O)[C@H](Cc2cccc(C)c2)NC(=O)[C@@H]2C[C@@H](O)CN2C1=O [Compound 183, Ac-Phe-[Orn-Hyp-Mmf-Trp-Phe]] (Ac-F[Orn][Hyp][Phe(3-Me)]WF; lactam 2-C) | 50 to 200 nM
CC(=O)N[C@@H](Cc1ccccc1)C(=O)N[C@@H](CCCN)C(=O)N1Cc2ccccc2C[C@H]1C(=O)N[C@H](CC1CCCCC1)C(=O)N[C@@H](Cc1c[nH]c2ccccc12)C(=O)N[C@@H](Cc1ccccc1)C(=O)O [Compound 116, Ac-Phe-Orn-Tic-cha-Trp-Phe-OH] (Ac-F[Orn][Tic][dCha]WF-OH) | 200 to 2000 nM
CC(=O)N[C@@H](Cc1ccccc1)C(=O)N[C@@H](CCCN)C(=O)N1CCC[C@H]1C(=O)N[C@H](CCC(C)C)C(=O)N[C@@H](Cc1ccccc1C(F)(F)F)C(=O)N[C@@H](Cc1ccccc1)C(N)=O [Compound 296, Ac-Phe-Orn-Pro-hle-Otf-Phe-NH2] (Ac-F[Orn]P[d(hLeu)][Phe(2-CF3)]F-NH2) | 50 to 200 nM
CC(=O)N[C@@H](Cc1ccccc1)C(=O)N[C@@H](CCCN)C(=O)N1CCC[C@H]1C(=O)N[C@H](CC1CCCCC1)C(=O)N[C@@H](Cc1csc2ccccc12)C(=O)N[C@@H](Cc1cccs1)C(N)=O [Compound 261, Ac-Phe-Orn-Pro-cha-Bta-Thi-NH2] (Ac-F[Orn]P[dCha][Bta][2Thi]-NH2) | 10 to 20 nM

The remaining lines, values ahead:

IC50 | Compound
20 to 50 nM | CC(=O)N[C@@H](Cc1ccccc1)C(=O)N[C@H]1CCCNC(=O)[C@H](CCCNC(=N)N)NC(=O)[C@H](Cc2c[nH]c3ccccc23)NC(=O)[C@@H](CC2CCCCC2)NC(=O)[C@H](C)N(C)C1=O [compound 46] (Ac-F[Orn][NMeA][dCha]WR; lactam 2-C)
50 to 200 nM | CC(=O)N[C@@H](Cc1ccccc1)C(=O)N[C@@H](CCCN)C(=O)N1CCC[C@H]1C(=O)N[C@H](CCC(C)C)C(=O)N[C@@H](Cc1ccc(F)cc1)C(=O)N[C@@H](Cc1ccc(F)cc1)C(N)=O [Compound 301, Ac-Phe-Orn-Pro-hle-Pff-Pff-NH2] (Ac-F[Orn]P[d(hLeu)][Phe(4-F)][Phe(4-F)]-NH2)
50 to 200 nM | CC(=O)N[C@@H](Cc1ccccc1)C(=O)N[C@@H](CCCN)C(=O)N1CC[C@H]1C(=O)N[C@H](CC1CCCCC1)C(=O)N[C@@H](Cc1cccc(Cl)c1)C(=O)N[C@@H](Cc1ccccc1)C(N)=O [Compound 100, Ac-Phe-Orn-Aze-cha-Mcf-Phe-NH2] (Ac-F[Orn][Aze][dCha][Phe(3-Cl)]F-NH2)
50 to 200 nM | CC(=O)N[C@@H](Cc1ccccc1)C(=O)N[C@@H](CCCN)C(=O)N(C)[C@@H](C)C(=O)N[C@H](CC1CCCCC1)C(=O)N[C@@H](Cc1csc2ccccc12)C(=O)N[C@@H](Cc1ccccc1)C(N)=O [Compound 246, Ac-Phe-Orn-NMA-cha-Bta-Phe-NH2] (Ac-F[Orn][NMeA][dCha][Bta]F-NH2)
20 to 50 nM | CC(=O)N[C@H](C(=O)N[C@@H](Cc1ccccc1)C(=O)N[C@@H](CCCN)C(=O)N1CC[C@H]1C(=O)N[C@H](CC1CCCCC1)C(=O)N[C@@H](Cc1csc2ccccc12)C(=O)N[C@@H](Cc1ccccc1)C(N)=O)[C@@H](C)O [Compound 314, Ac-Thr-Phe-Orn-Aze-cha-Bta-Phe-NH2] (Ac-TF[Orn][Aze][dCha][Bta]F-NH2)
20 to 50 nM | CC(=O)N[C@@H](Cc1ccccc1)C(=O)N[C@@H](CCCN)C(=O)N1CCC[C@H]1C(=O)N[C@H](CC1CCCCC1)C(=O)N[C@@H](Cc1c[nH]c2ccccc12)C(=O)N[C@@H](Cc1ccc2ccccc2c1)C(N)=O [Compound 64, Ac-Phe-Orn-Pro-cha-Trp-2Ni—NH2] (Ac-F[Orn]P[dCha]W[2Nal]-NH2)
50 to 200 nM | CCCC[C@@H]1NC(=O)[C@H](Cc2csc3ccccc23)NC(=O)[C@@H](CCC(C)C)NC(=O)[C@@H]2CCCN2C(=O)[C@@H](NC(=O)[C@H](Cc2ccccc2)NC(C)=O)CCCNC1=O [Compound 196, Ac-Phe-[Orn-Pro-hle-Bta-Nle]] (Ac-F[Orn]P[d(hLeu)][Bta][Nle]; lactam 2-C)
50 to 200 nM | COc1ccc(CCN(CC(=O)N[C@H](CC2CCCCC2)C(=O)N[C@@H](Cc2csc3ccccc23)C(=O)N[C@@H](Cc2ccccc2)C(N)=O)C(=O)[C@H](CCCN)NC(=O)[C@H](Cc2ccccc2)NC(C)=O)cc1OC [Compound 242, Ac-Phe-Orn-G31-cha-Bta-Phe-NH2] (Ac-F[Orn][N(3,4-(MeO)2phenethyl)Gly][dCha][Bta]F-NH2)
50 to 200 nM | CC(=O)N[C@@H](Cc1ccccc1)C(=O)N[C@@H](CCCNC(=N)N)C(=O)N1CCC[C@H]1C(=O)N[C@H](CC1CCCCC1)C(=O)N[C@@H](Cc1c[nH]c2ccccc12)C(=O)N[C@@H](Cc1ccccc1)C(N)=O [Compound 104, Ac-Phe-Arg-Pro-cha-Trp-Phe-NH2] (Ac-FRP[dCha]WF-NH2)
50 to 200 nM | CC(=O)N[C@@H](Cc1ccccc1)C(=O)N[C@@H](CCCN)C(=O)N1CCC[C@H]1C(=O)N[C@@H](C(=O)N[C@@H](Cc1c[nH]c2ccccc12)C(=O)N[C@@H](Cc1ccccc1)C(N)=O)C1CCCCC1 [Compound 109, Ac-Phe-Orn-Pro-chg-Trp-Phe-NH2] (Ac-F[Orn]P[dChg]WF-NH2)
20 to 50 nM | CC(=O)N[C@@H](Cc1ccccc1)C(=O)N[C@@H](CCCNC(=N)N)C(=O)N1CCC[C@H]1C(=O)N[C@H](CC1CCCCC1)C(=O)N[C@@H](Cc1csc2ccccc12)C(=O)N[C@@H](Cc1ccccc1)C(N)=O [Compound 122, Ac-Phe-Arg-Pro-cha-Bta-Phe-NH2] (Ac-FRP[dCha][Bta]F-NH2)
50 to 200 nM | CCCC[C@@H]1NC(=O)[C@H](Cc2c[nH]c3ccccc23)NC(=O)[C@@H](CC2CCCCC2)NC(=O)[C@H](CC(N)=O)NC(=O)[C@@H](NC(=O)[C@H](Cc2ccccc2)NC(C)=O)CCCNC1=O [Compound 173, Ac-Phe-[Orn-Asn-cha-Trp-Nle]] (Ac-F[Orn]N[dCha]W[Nle]; lactam 2-C)
200 to 2000 nM | CC(=O)N[C@@H](Cc1ccccc1)C(=O)N[C@H]1CCCNC(=O)[C@H](CCCNC(N)=O)NC(=O)[C@H](Cc2c[nH]c3ccccc23)NC(=O)[C@@H](CC2CCCCC2)NC(=O)[C@@H]2CCCN2C1=O [Compound 10, Ac-Phe-[Orn-Pro-cha-Trp-Cit], reference compound]
50 to 200 nM | N[C@@H](CC(=O)N[C@@H](Cc1ccccc1)C(=O)N[C@H]1CCCNC(=O)[C@H](Cc2ccccc2)NC(=O)[C@H](Cc2c[nH]c3ccccc23)NC(=O)[C@@H](CC2CCCCC2)NC(=O)[C@@H]2C[C@@H](O)CN2C1=O)c1ccccc1 [Compound 318, Eby-Phe-[Orn-Hyp-cha-Trp-Phe]] (dβ3hPhg-F[Orn][Hyp][dCha]WF; lactam 2-C)
